Laboratory results: patent publication US12371454B2, “Cyclic peptide compound having Kras inhibitory action” (priority 2019, dated 2025)
pIC50: −log10 of the molar value. Starred links: 1 amine or outer side, 2 acyl side, 3 side chain; linkers in the order of their positions; H or OH if unused. Positions of bridges follow the written chain, without caps; N, C: chain ends. Non-standard residues stand in square brackets, D forms with d. Residues, ends and D or L forms follow the SMILES beside them. *: point of attachment. hPhe(3-Cl-4-CF3) = N[C@@H](CCc1ccc(C(F)(F)F)c(Cl)c1)C(=O)O; NMePhe(4-CF3) = CN[C@@H](Cc1ccc(C(F)(F)F)cc1)C(=O)O; NMePhe(4-Cl) = CN[C@@H](Cc1ccc(Cl)cc1)C(=O)O; NMePhe(4-Me) = CN[C@@H](Cc1ccc(C)cc1)C(=O)O; NMePhe(2-Cl) = CN[C@@H](Cc1ccccc1Cl)C(=O)O; NMePhe(2-Me) = CN[C@@H](Cc1ccccc1C)C(=O)O; NMedβ3hAla = C[C@H](CC(=O)[*:2])N(C)[*:1]; NMeAla(cPent) = CN[C@@H](CC1CCCC1)C(=O)O; Phe(2-Cl) = N[C@@H](Cc1ccccc1Cl)C(=O)O; Phe(3-I) = N[C@@H](Cc1cccc(I)c1)C(=O)O; NMeAla(cPr) = CN[C@@H](CC1CC1)C(=O)O; NMeCha = CN[C@@H](CC1CCCCC1)C(=O)O; Hyp = O=C(O)[C@@H]1C[C@@H](O)CN1; NMeChg = CN[C@H](C(=O)O)C1CCCCC1; NMeD = CN[C@@H](CC(=O)O)C(=O)O; NMeL = CN[C@@H](CC(C)C)C(=O)O; αMeL = CC(C)C[C@](C)(N)C(=O)O; NMeV = CN[C@H](C(=O)O)C(C)C; d(β3hA) = C[C@@H](N)CC(=O)O; NMeA = CN[C@@H](C)C(=O)O; NMeAib = CNC(C)(C)C(=O)O; Nle = CCCC[C@H](N)C(=O)O; Piperidide = C1CCN(*)CC1; Pyrrolidide = C1CCN(*)C1; Ac5c = NC1(C(=O)O)CCCC1; Aze = O=C(O)[C@@H]1CCN1; Ac4c = NC1(C(=O)O)CCC1; Sar = CNCC(=O)O

biological target: T1, Kras and SOS1 (biotin-tagged human Kras loaded with GDP, His-tagged human SOS1) (Homo sapiens, UniProt P01116, G12D); assay: Protein-protein interaction inhibition between Kras and SOS1 (KrasGl2D-SOS PPI) using AlphaScreen; assay type: binding; details: AlphaScreen; biotin-tagged human Kras loaded with GDP, His-tagged human SOS1; read-out: KRAS G12D-SOS PPI IC50
T1 construct: made in house; host or cells: E. coli (stated for Kras only)
T1 sequence (P01116 1-188 isoform P01116-2 G12D): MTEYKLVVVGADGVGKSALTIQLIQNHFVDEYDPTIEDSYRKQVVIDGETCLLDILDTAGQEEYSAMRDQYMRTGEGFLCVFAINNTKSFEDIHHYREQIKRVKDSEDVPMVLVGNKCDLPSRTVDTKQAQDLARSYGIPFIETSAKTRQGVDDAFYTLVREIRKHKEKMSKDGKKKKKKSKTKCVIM
Outline: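 AlphaScreen format: Ni donor beads capture His-SOS1, streptavidin acceptor beads capture biotinylated Kras (E. coli-expressed, GDP-loaded post-purification). Excite 680 nm, read 520-620 nm.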

| Compound | pIC50 |
| --- | --- |
| CCCC[C@@H]1NC(=O)[C@H](CCc2ccc(C(F)(F)F)c(Cl)c2)NC(=O)CN(C)C(=O)[C@H](CC2CCCC2)N(C)C(=O)[C@@H]2CCN2C(=O)[C@H](C)N(C)C(=O)[C@H]([C@@H](C)CC)NC(=O)[C@H](CC(C)C)N(C)C(=O)C[C@@H](C(=O)N2CCCCC2)N(C)C(=O)[C@H](CC(C)C)NC(=O)C(C)(C)N(C)C1=O [Compound 691] ([NMeL]I[NMeA][Aze][NMeAla(cPent)][Sar][hPhe(3-Cl-4-CF3)][Nle][NMeAib]L[NMeD]-Piperidide; lactam N-11) | 8.15 |
| CCCC[C@@H]1NC(=O)[C@H](Cc2cccc(I)c2)NC(=O)CN(C)C(=O)[C@H](Cc2ccc(Cl)cc2)N(C)C(=O)CN(C)C(=O)CN(C)C(=O)[C@H]([C@@H](C)CC)NC(=O)[C@H](CC(C)C)N(C)C(=O)C[C@@H](C(=O)N2CCCCC2)N(C)C(=O)[C@H](CC(C)C)NC(=O)[C@H](Cc2ccccc2C)N(C)C1=O [Compound 696] ([NMeL]I[Sar][Sar][NMePhe(4-Cl)][Sar][Phe(3-I)][Nle][NMePhe(2-Me)]L[NMeD]-Piperidide; lactam N-11) | 7.40 |
| CC[C@H](C)[C@@H]1NC(=O)[C@H](C)N(C)C(=O)C[C@@H](C)NC(=O)[C@H](C(C)C)N(C)C(=O)C2(CCCC2)NC(=O)[C@@H]2CCCN2C(=O)[C@H](CCc2ccc(C(F)(F)F)c(Cl)c2)NC(=O)CN(C)C(=O)[C@H](CC2CCCCC2)N(C)C(=O)CN(C)C(=O)CN(C)C1=O [Compound 697] (cyclo([Ac5c][NMeV][d(β3hA)][NMeA]I[Sar][Sar][NMeCha][Sar][hPhe(3-Cl-4-CF3)]P)) | 7.92 |
| CCO[C@@H]1C[C@H]2C(=O)NC3(CCC3)C(=O)N(C)[C@@H](C3CCCCC3)C(=O)N(C)[C@H](C)CC(=O)N(C)[C@@H](CC(C)C)C(=O)N[C@@H]([C@@H](C)CC)C(=O)N(C)[C@@H](C)C(=O)N3CC[C@H]3C(=O)N(C)[C@@H](Cc3ccc(C(F)(F)F)cc3)C(=O)N(C)CC(=O)N[C@@H](CCc3ccc(C(F)(F)F)c(Cl)c3)C(=O)N2C1 [Compound 698] (cyclo([Ac4c][NMeChg][NMedβ3hAla][NMeL]I[NMeA][Aze][NMePhe(4-CF3)][Sar][hPhe(3-Cl-4-CF3)][Hyp](Et))) | 7.64 |
| CC[C@H](C)[C@@H]1NC(=O)[C@H](C)N(C)C(=O)C[C@@H](C(=O)N2CCCC2)N(C)C(=O)[C@H](C(C)C)N(C)C(=O)[C@@H](C)NC(=O)[C@H](Cc2ccccc2Cl)N(C)C(=O)[C@H](CCc2ccc(C(F)(F)F)c(Cl)c2)NC(=O)CN(C)C(=O)[C@H](CC2CCCCC2)N(C)C(=O)CN(C)C(=O)CN(C)C1=O [Compound 702] ([NMeA]I[Sar][Sar][NMeCha][Sar][hPhe(3-Cl-4-CF3)][NMePhe(2-Cl)][dA][NMeV][NMeD]-Pyrrolidide; lactam N-11) | 6.89 |
| CC[C@H](C)[C@@H]1NC(=O)[C@H](CC(C)C)N(C)C(=O)C[C@@H](C(=O)N2CCCCC2)N(C)C(=O)[C@H](CC(C)C)NC(=O)C(C)(C)N(C)C(=O)[C@H](Cc2ccc(OC)cc2)NC(=O)[C@H](Cc2cccc(I)c2)NC(=O)CN(C)C(=O)[C@H](Cc2ccc(C)cc2)N(C)C(=O)[C@@H]2CCN2C(=O)[C@H](C)N(C)C1=O [Compound 703] ([NMeL]I[NMeA][Aze][NMePhe(4-Me)][Sar][Phe(3-I)]Y(Me)[NMeAib]L[NMeD]-Piperidide; lactam N-11) | 8.07 |
| CC[C@H](C)[C@@H]1NC(=O)[C@H](CC(C)C)N(C)C(=O)C[C@@H](C)NC(=O)[C@H](C(C)C)N(C)C(=O)[C@](C)(CC(C)C)NC(=O)[C@@H]2CCCN2C(=O)[C@H](CCc2ccc(C(F)(F)F)c(Cl)c2)NC(=O)CN(C)C(=O)[C@H](CC2CCCCC2)N(C)C(=O)CN(C)C(=O)CN(C)C1=O [Compound 705] (cyclo(I[Sar][Sar][NMeCha][Sar][hPhe(3-Cl-4-CF3)]P[αMeL][NMeV][d(β3hA)][NMeL])) | 6.44 |
| CC[C@H](C)[C@@H]1NC(=O)[C@H](CC(C)C)N(C)C(=O)C[C@@H](C(=O)N2CCCCC2)N(C)C(=O)[C@H](CC(C)C)NC(=O)C(C)(C)N(C)C(=O)[C@H](Cc2ccccc2Cl)NC(=O)[C@H](Cc2cccc(I)c2)NC(=O)CN(C)C(=O)[C@H](Cc2ccc(C)cc2)N(C)C(=O)CN(C)C(=O)CN(C)C1=O [Compound 706] ([NMeL]I[Sar][Sar][NMePhe(4-Me)][Sar][Phe(3-I)][Phe(2-Cl)][NMeAib]L[NMeD]-Piperidide; lactam N-11) | 7.18 |
| CC[C@H](C)[C@@H]1NC(=O)[C@H](CC(C)C)N(C)C(=O)C[C@@H](C)NC(=O)[C@H](CC2CC2)N(C)C(=O)C2(CCCC2)NC(=O)[C@@H]2CCCN2C(=O)[C@H](CCc2ccc(C(F)(F)F)c(Cl)c2)NC(=O)CN(C)C(=O)[C@H](CC2CCCCC2)N(C)C(=O)CN(C)C(=O)CN(C)C1=O [Compound 707] (cyclo([Ac5c][NMeAla(cPr)][d(β3hA)][NMeL]I[Sar][Sar][NMeCha][Sar][hPhe(3-Cl-4-CF3)]P)) | 7.85 |
